Reference: patent US20260091050A1, “ADVANTAGEOUS ANTI-HCV COMBINATION THERAPY” (Atea Pharmaceuticals, Inc., priority 2021, published 2026)

Assay: Chemical stability of Compound 1-A at 25° C./60% RH and 40° C./75% RH over 6 months
Type: physicochemical
Details: for Increase of percent of water: over 6 months
Experimental: The container closure system for the study was a combination medicinal valve bag with a pharmaceutical laminated film over the pouch and desiccant silica gel between the two layers. […] Bags were then stored at 25° C./60% RH (relative humidity) and 40° C./75% RH (relative humidity). Organic purity, water content, ^1HNMR, DSC and Raman were measured at Time 0, Month 1, Month 2, Month 3 and Month 6.
The sample was dissolved in acetonitrile—water (90:10) (v/v). The gradient method is shown below.

[1] = 25° C., Month 1, compared with Day 0
[2] = 25° C., Month 2, compared with Day 0
[3] = 25° C., Month 3, compared with Day 0
[4] = 25° C., Month 6, compared with Day 0
[5] = 40° C., Month 1, compared with Day 0
[6] = 40° C., Month 2, compared with Day 0
[7] = 40° C., Month 3, compared with Day 0
[8] = 40° C., Month 6, compared with Day 0

CNc1nc(N)nc2c1ncn2[C@@H]1O[C@H](CO[P@@](=O)(N[C@@H](C)C(=O)OC(C)C)Oc2ccccc2)[C@@H](O)[C@@]1(C)F [Compound 1-A, isopropyl ((S)-(((2R,3R,4R,5R)-5-(2-amino-6-(methylamino)-9H-purin-9-yl)-4-fluoro-3-hydroxy-4-methyltetrahydrofuran-2-yl)methoxy) (phenoxy)phosphoryl)-L-alaninate hemisulfate]
Maximum Impurity Percent (25° C., Day 0): 0.12%
Percent Purity (25° C., Day 0): 99.82%
Percent Water (25° C., Day 0): 1.2%
Maximum Impurity Percent (25° C., Month 1): 0.12%
Percent Purity (25° C., Month 1): 99.77%
Percent Water (25° C., Month 1): 1.9%
DSC [1]: The same
Raman [1]: The same
^1HNMR [1]: The same
Maximum Impurity Percent (25° C., Month 2): 0.12%
Percent Purity (25° C., Month 2): 99.75%
Percent Water (25° C., Month 2): 1.8%
DSC [2]: The same
Raman [2]: The same
^1HNMR [2]: The same
Maximum Impurity Percent (25° C., Month 3): 0.12%
Percent Purity (25° C., Month 3): 99.75%
Percent Water (25° C., Month 3): 1.8%
DSC [3]: The same
Raman [3]: The same
^1HNMR [3]: The same
Maximum Impurity Percent (25° C., Month 6): 0.13%
Percent Purity (25° C., Month 6): 99.74%
Percent Water (25° C., Month 6): 1.8%
DSC [4]: The same
Raman [4]: The same
^1HNMR [4]: The same
Increase of percent of water (25° C.): approximately 0.6%
Maximum Impurity Percent (40° C., Day 0): 0.12%
Percent Purity (40° C., Day 0): 99.82%
Percent Water (40° C., Day 0): 1.2%
Maximum Impurity Percent (40° C., Month 1): 0.12%
Percent Purity (40° C., Month 1): 99.71%
Percent Water (40° C., Month 1): 2.0%
DSC [5]: The same
Raman [5]: The same
^1HNMR [5]: The same
Maximum Impurity Percent (40° C., Month 2): 0.12%
Percent Purity (40° C., Month 2): 99.63%
Percent Water (40° C., Month 2): 1.9%
DSC [6]: The same
Raman [6]: The same
^1HNMR [6]: The same
Maximum Impurity Percent (40° C., Month 3): 0.12%
Percent Purity (40° C., Month 3): 99.58%
Percent Water (40° C., Month 3): 1.9%
DSC [7]: The same
Raman [7]: The same
^1HNMR [7]: The same
Maximum Impurity Percent (40° C., Month 6): 0.14%
Percent Purity (40° C., Month 6): 99.30%
Percent Water (40° C., Month 6): 1.9%
DSC [8]: The same
Raman [8]: The same
^1HNMR [8]: The same
Increase of percent of water (40° C.): approximately 0.7%
